Like-named read-outs stand apart in the source and are kept apart here.
Assays:
[1] = molecular target: T1, recombinant human Meningioma Expressed Antigen 5 (MGEA5), also referred to as O-GlcNAcase (OGA) (Homo sapiens, UniProt O60502); assay: OGA biochemical assay: inhibition of FM-GlcNAc hydrolysis, fluorescence; protocol A (10 nM OGA, 1 h) or protocol B (2 nM OGA, 6 h); conditions: for IC50: read-out: Enzymatic hOGA, pIC50 (converted)
T1 construct: Full length OGA enzyme was purchased at OriGene (cat # TP322411); purchased OriGene TP322411
T1 sequence (O60502 1-916): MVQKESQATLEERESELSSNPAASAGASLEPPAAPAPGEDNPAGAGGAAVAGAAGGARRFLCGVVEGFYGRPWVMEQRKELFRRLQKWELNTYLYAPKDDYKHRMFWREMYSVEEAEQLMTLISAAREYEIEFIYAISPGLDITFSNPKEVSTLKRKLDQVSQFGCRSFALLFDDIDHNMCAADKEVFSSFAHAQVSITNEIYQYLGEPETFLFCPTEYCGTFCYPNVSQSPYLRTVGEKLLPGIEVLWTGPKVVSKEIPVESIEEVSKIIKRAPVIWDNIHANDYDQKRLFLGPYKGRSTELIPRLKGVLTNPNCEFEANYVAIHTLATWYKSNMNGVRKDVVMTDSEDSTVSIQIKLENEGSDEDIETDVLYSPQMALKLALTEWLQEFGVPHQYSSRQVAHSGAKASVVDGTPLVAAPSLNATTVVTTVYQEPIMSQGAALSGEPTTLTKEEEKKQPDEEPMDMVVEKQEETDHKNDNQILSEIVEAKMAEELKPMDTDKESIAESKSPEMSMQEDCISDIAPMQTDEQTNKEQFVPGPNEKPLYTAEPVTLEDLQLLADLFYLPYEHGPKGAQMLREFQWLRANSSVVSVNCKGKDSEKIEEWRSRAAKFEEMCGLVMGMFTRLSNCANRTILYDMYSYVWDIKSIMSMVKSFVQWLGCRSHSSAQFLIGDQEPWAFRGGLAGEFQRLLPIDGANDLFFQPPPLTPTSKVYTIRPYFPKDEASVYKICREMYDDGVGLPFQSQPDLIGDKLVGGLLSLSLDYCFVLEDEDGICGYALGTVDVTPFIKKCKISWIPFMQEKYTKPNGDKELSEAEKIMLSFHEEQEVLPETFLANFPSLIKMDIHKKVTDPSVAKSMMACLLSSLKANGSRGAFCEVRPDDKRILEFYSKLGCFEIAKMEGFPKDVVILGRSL
Method in brief: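 Full-length human OGA in 200 mM citrate/phosphate pH 7.2 with 0.005% Tween-20, compound pre-incubated 60 min at RT, then 100 uM FM-GlcNAc (final); 10 nM enzyme for 1 h or 2 nM for 6 h at RT. Stopped with pH 11.0 carbonate; fluorescein read at ex 485/em 538 nm. IC50 and Hill coefficient from curve fit.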

[2] = tested on: OGA in HEK293 cells inducible for P301L mutant human Tau (isoform 2N4R); assay: OGA cellular assay: immunocytochemical detection of O-GlcNAcylated proteins (CTD110.6 antibody) after 6 h incubation; type: cell-based; conditions: for Emax / EC50: Homo sapiens, HEK293, 6 h; for EC50: read-out: Cellular hOGA, pEC50 (converted)
Procedure: HEK293 cells inducible for P301L mutant human Tau (isoform 2N4R) were established at Janssen. Thiamet-G was used for both plate validation (high control) and as reference compound (reference EC50 assay validation). OGA inhibition is evaluated through the immunocytochemical (ICC) detection of O-GlcNAcylated proteins by the use of a monoclonal antibody (CTD110.6; Cell Signaling, #9875) detecting O-GlcNAcylated residues as previoulsy described (Dorfmueller et al. 2010 Chemistry & biology, 17:1250). Inhibition of OGA will result in an increase of O-GlcNAcylated protein levels resulting in an increased signal in the experiment. Cell nuclei are stained with Hoechst to give a cell culture quality control and a rough estimate of immediate compounds toxicity, if any. ICC pictures are imaged with a Perkin Elmer Opera Phenix plate microscope and quantified with the provided software Perkin Elmer Harmony 4.1.
Cells were propagated in DMEM high Glucose (Sigma, # D5796) following standard procedures. 2 days before the cell assay cells are split, counted and seeded in Poly-D-Lysine (PDL) coated 96-wells (Greiner, #655946) plate at a cell density of 12,000 cells per cm^2 (4,000 cells per well) in 100 μl of Assay Medium (Low Glucose medium is used to reduce basal levels of GlcNAcylation) (Park et al. 2014 The Journal of biological chemistry 289:13519). At the day of compound test medium from assay plates was removed and replenished with 90 μl of fresh Assay Medium. 10 μl of compounds at a 10 fold final concentration were added to the wells. Plates were centrifuged shortly before incubation in the cell incubator for 6 hours. DMSO concentration was set to 0.2%. Medium is discarded by applying vacuum. For staining of cells medium was removed and cells washed once with 100 μl D-PBS (Sigma, # D8537). From next step onwards unless other stated assay volume was always 50 μl and incubation was performed without agitation and at room temperature. Cells were fixed in 50 μl of a 4% paraformaldehyde (PFA, Alpha aesar, #043368) PBS solution for 15 minutes at room temperature. […] Before analysis samples were washed 2 times manually for 5 minutes in ICC base buffer.
Imaging is performed using Perkin Elmer Phenix Opera using a water 20× objective and recording 9 fields per well. Intensity readout at 488 nm is used as a measure of O-GlcNAcylation level of total proteins in wells. To assess potential toxicity of compounds nuclei were counted using the Hoechst staining. IC50-values are calculated using parametric non-linear regression model fitting. As a maximum inhibition Thiamet G at a 200 uM concentration is present on each plate. In addition, a concentration response of Thiamet G is calculated on each plate.

[3] = Enzymatic protocol A (10 nM OGA, 1 h)
[4] = Enzymatic protocol B (2 nM OGA, 6 h)

CC(=O)Nc1ncc(CN2CCCC(Oc3cc(C)nc(C)c3)C2)s1 (stereo not drawn) [compound 14]
Emax [1, 3]: 100%
IC50 [1, 3]: 8.13 nM
Emax [1, 4]: 101%
IC50 [1, 4]: 9.12 nM
Emax ([2]; maximum = Thiamet G 200 uM): 118%
EC50 [2]: 112 nM

CC(=O)Nc1ncc(CN2CCC[C@@H](Oc3cc(C)nc(C)c3)C2)s1 [compound 15]
Emax [1, 4]: 102%
IC50 [1, 4]: 8.51 nM
Emax ([2]; maximum = Thiamet G 200 uM): 98.4%
EC50 [2]: 1230 nM

CC(=O)Nc1ncc(CN2CCC[C@H](Oc3cc(C)nc(C)c3)C2)s1 [compound 16]
Emax [1, 4]: 101%
IC50 [1, 4]: 70.8 nM
Emax ([2]; maximum = Thiamet G 200 uM): 115%
EC50 [2]: 63.1 nM

Cc1cc(O[C@@H]2CCCN(Cc3ccc4nccnc4c3)C2)cc(C)n1 [compound 18]
Emax [1, 4]: 97.9%
IC50 [1, 4]: 417 nM
Emax ([2]; maximum = Thiamet G 200 uM): 12.4%
EC50 [2]: > 10000 nM

CC(=O)Nc1ncc(CN2CCCC(COc3cc(C)nc(C)c3)C2)s1 (stereo not drawn) [compound 20]
Emax [1, 4]: 101%
IC50 [1, 4]: 6.76 nM
Emax ([2]; maximum = Thiamet G 200 uM): 111%
EC50 [2]: 6.31 nM

CC(=O)Nc1ncc(CN2CCCC(Cc3cc(C)nc(C)n3)C2)s1 (stereo not drawn) [compound 24]
Emax [1, 4]: 101%
IC50 [1, 4]: 5.5 nM
Emax ([2]; maximum = Thiamet G 200 uM): 111%
EC50 [2]: 32.4 nM

CC(=O)Nc1ncc(CN2CCCC(Cc3cc(C)nc(C)c3)C2)s1 (stereo not drawn) [compound 27]
Emax [1, 4]: 99.6%
IC50 [1, 4]: 2.45 nM
Emax ([2]; maximum = Thiamet G 200 uM): 118%
EC50 [2]: 5.25 nM

CC(=O)Nc1ncc(CN2CCC[C@H](Cc3cc(C)nc(C)c3)C2)s1 [compound 28]
Emax [1, 4]: 102%
IC50 [1, 4]: 1.05 nM
Emax ([2]; maximum = Thiamet G 200 uM): 106%
EC50 [2]: 4.47 nM

CC(=O)Nc1ncc(CN2CCC[C@@H](Cc3cc(C)nc(C)c3)C2)s1 [compound 29]
Emax [1, 4]: 102%
IC50 [1, 4]: 8.71 nM
Emax ([2]; maximum = Thiamet G 200 uM): 108%
EC50 [2]: 56.2 nM

CC(=O)Nc1ncc(CN2CCC(Cc3cc(C)nc(C)c3)C2)s1 (stereo not drawn) [compound 30]
Emax [1, 4]: 124%
IC50 [1, 4]: 4.68 nM
Emax ([2]; maximum = Thiamet G 200 uM): 99.2%
EC50 [2]: 13.2 nM

CC(=O)Nc1ncc(CN2CCCC(Nc3cc(C)nc(C)c3)C2)s1 (stereo not drawn) [compound 31]
Emax [1, 4]: 102%
IC50 [1, 4]: 3.24 nM
Emax ([2]; maximum = Thiamet G 200 uM): 90.2%
EC50 [2]: 20 nM

CC(=O)Nc1ncc(S(=O)(=O)N2CCC[C@H](Cc3cc(C)nc(C)c3)C2)s1 [compound 33]
Emax [1, 4]: 99.9%
IC50 [1, 4]: 72.4 nM
Emax ([2]; maximum = Thiamet G 200 uM): 33.8%
EC50 [2]: > 1000 nM

CC(=O)Nc1ncc(CN2CC[C@@H](Cc3ncc(C)cc3C(F)(F)F)C2)s1 [compound 35]
Emax [1, 4]: 101%
IC50 [1, 4]: 12.6 nM
Emax ([2]; maximum = Thiamet G 200 uM): 91.9%
EC50 [2]: 77.6 nM

CC(=O)Nc1ncc(CN2CC[C@H](Cc3cnc(C)c(C)c3)C2)s1 [compound 37]
Emax [1, 4]: 99.1%
IC50 [1, 4]: 3.09 nM
Emax ([2]; maximum = Thiamet G 200 uM): 87.8%
EC50 [2]: 18.2 nM

CCOc1cc(C[C@H]2CCN(Cc3cnc(NC(C)=O)s3)C2)cc(C)n1 [compound 41]
Emax [1, 4]: 99.6%
IC50 [1, 4]: 8.51 nM
Emax ([2]; maximum = Thiamet G 200 uM): 90.7%
EC50 [2]: 20.9 nM

CC(=O)Nc1ncc(CN2CC[C@H](Cc3ncccc3C#N)C2)s1 [compound 45]
Emax [1, 4]: 101%
IC50 [1, 4]: 26.9 nM
Emax ([2]; maximum = Thiamet G 200 uM): 80.1%
EC50 [2]: 219 nM

CC(=O)Nc1ncc(CN2CC[C@H](Cc3ccc(C#N)cn3)C2)s1 [compound 46]
Emax [1, 4]: 101%
IC50 [1, 4]: 21.9 nM
Emax ([2]; maximum = Thiamet G 200 uM): 85.9%
EC50 [2]: 47.9 nM

CC(=O)Nc1ncc(CN2CC[C@H](Cc3nnc(C)cc3C)C2)s1 [compound 47]
Emax [1, 4]: 96.9%
IC50 [1, 4]: 40.7 nM
Emax ([2]; maximum = Thiamet G 200 uM): 61.6%
EC50 [2]: 288 nM

COc1cnc(C[C@H]2CCN(Cc3cnc(NC(C)=O)s3)C2)c(F)c1 [compound 48]
Emax [1, 4]: 100%
IC50 [1, 4]: 12 nM
Emax ([2]; maximum = Thiamet G 200 uM): 83%
EC50 [2]: 66.1 nM

CC(=O)Nc1ncc(CN2CC[C@H](Cc3ccc(OC(F)(F)F)cn3)C2)s1 [compound 49]
Emax [1, 4]: 97.9%
IC50 [1, 4]: 105 nM
Emax ([2]; maximum = Thiamet G 200 uM): 89.6%
EC50 [2]: 85.1 nM

CC(=O)Nc1ncc(CN2CC[C@H](Cc3ccc(C(F)F)cn3)C2)s1 [compound 50]
Emax [1, 4]: 99.4%
IC50 [1, 4]: 77.6 nM
Emax ([2]; maximum = Thiamet G 200 uM): 87.4%
EC50 [2]: 55 nM

CC(=O)Nc1ncc(CN2CC[C@H](Cc3cc(C(F)(F)F)cnc3C)C2)s1 [compound 51]
Emax [1, 4]: 98.3%
IC50 [1, 4]: 53.7 nM
Emax ([2]; maximum = Thiamet G 200 uM): 93.5%
EC50 [2]: 123 nM

CC(=O)Nc1ncc(CN2CC[C@H](Cc3cc(C)c(F)cn3)C2)s1 [compound 52]
Emax [1, 4]: 100%
IC50 [1, 4]: 14.8 nM
Emax ([2]; maximum = Thiamet G 200 uM): 95.4%
EC50 [2]: 91.2 nM

CC(=O)Nc1ncc(CN2CCC(Cc3cc(C(F)(F)F)ccn3)C2)s1 (stereo not drawn) [compound 53]
Enzymatic Emax (%) [1, 4]: 99.4%
Enzymatic hOGA; pIC50 [1, 4]: 7.05
Cellular hOGA; pEC50 [2]: 6.76
Cellular Emax (%) ([2]; maximum = Thiamet G 200 uM): 85.6%

CC(=O)Nc1ncc(CN2CC[C@H](Cc3nc(C)ccc3C(F)(F)F)C2)s1 [compound 54]
Emax [1, 4]: 100%
IC50 [1, 4]: 28.8 nM
Emax ([2]; maximum = Thiamet G 200 uM): 75.9%
EC50 [2]: 234 nM
